Three compounds from paper PMC7351617 (Journal of neurochemistry, 2020) can be followed below.

Read-outs that look alike come from different tables or passages of the source.

The subject of assay [1] is α7 nAChRs of rat adrenal chromaffin cells. It is filed as cell-based.
The test system of assay [2] is rat adrenal chromaffin cells (native α3β4* / α3β2β4 nAChRs). Particulars: SD.

For `Cl.O=C(N[C@H]1CN2CCC1CC2)c1ccc(Cl)cc1` [PNU282987, N-[(3R)-1-Azabicyclo[2.2.2]oct-3-yl]-4-chlorobenzamide hydrochloride], in assay [1], the “PNU282987-evoked current amplitudes in some cells (relatively small)” value is listed as 10–20 pA and the “cells in which PNU282987 evoked currents” value is 18/28. The “PNU282987-evoked current amplitude before PNU120596” value in assay [1] (SD) was −29 ± 38 pA.

In the case of `CC(=O)OCC[N+](C)(C)C` [ACh, Acetylcholine (ACh) chloride], the ACh-evoked currents in assay [2] is recorded as −2730 ± 1789 pA; in assay [2] (n=7), −3992 ± 1649 pA.

Turning to `COc1cc(OC)c(NC(=O)Nc2cc(C)on2)cc1Cl` [PNU120596], the “cells with detectable PNU282987-evoked currents in the presence of PNU120596” value in assay [1] is on record as 24/28. In assay [1] (SD), the “PNU282987-evoked current amplitude in the presence of PNU120596” value is −1275 ± 1668 pA and the “increase in PNU282987-evoked current amplitudes in the presence of PNU120596” value is listed as 54 ± 99 fold.
